Test results taken from US9034922B2, “Composition for maintaining function of platelets” (THE UNIVERSITY OF TOKYO, priority 2010, dated 2015).

Test system: human peripheral blood platelets adhering to VWF
Test: Adhesion ability of platelets to VWF-coated flow chamber
Type: cell-based
Settings: Test Example 15; platelets incubated with 15 μM S-45457 and 100 μM CCCP, 37° C., 24 hours; wall shear rate 1500 S^−1
Description: Then, the supernatant was removed. The precipitate thus obtained was suspended in a Tyrode HEPES Ca(−) buffer, added with 100 μM CCCP and simultaneously added with one of either DMSO or 15 μM S-45457 and followed by incubation at 37° C. for 24 hours. Note that, in this experiment, one obtained by adding CCCP and DMSO and the subsequent incubation was prepared as a negative control, while one obtained without the addition or the incubation treatments was prepared as a positive control.
Further, after the incubation (in the case of the positive control, without incubation), the suspension was added with TMRE (tetramethylrhodamine ethyl ester perchlorate) having been diluted to 1/2000 and incubated at room temperature for 15 minutes to label the platelets with fluorescence. […]
Next, each of fluorescence-labelled platelet samples was added to and mixed with a whole blood sample of collected human peripheral blood anticoagulated with argatroban (thrombin inhibitor) so that the number of platelets of the fluorescence-labelled platelet sample was 10% of the whole blood platelets. […] The fluorescence-labelled platelets which formed a thrombus were visualized using an inverted stage epifluorescence video microscope system (DM IRB, manufactured by Leica). […] Further, a percentage of surface area covered by platelets was calculated using Image-J software (NIH Image). […]

SMILES: CC#CCOc1ccc(S(=O)(=O)CC(c2ccc(CNS(C)(=O)=O)cc2)N(O)C=O)cc1 (stereo not shown) [Compound I-4, N-{4-[2-(4-But-2-ynyloxybenzenesulfonyl)-1-(formylhydroxyamino)ethyl]benzyl}methanesulfonamide]
- percentage of surface area covered by platelets: high percentage of surface area covered by the platelets in comparison with the result of the negative control
